Results taken from patent publication US7288567B2, “Inhibitors of histone deacetylase” (Methylgene Inc., priority 2000, dated 2007).

Target: T1, recombinant human HDAC-1 enzyme (rHDAC-1) (Homo sapiens, UniProt Q13547)
T1 construct: made in house; host or cells: Baculovirus insect cell expression system
Test: Histone deacetylase inhibition, recombinant human HDAC-1
Format: biochemical
Conditions: cloned recombinant human HDAC-1, Baculovirus insect cell expression; read-out: rHDAC-1 IC50
Protocol: The reaction was stopped by adding acetic acid (0.04 M, final concentration) and HCl (250 mM, final concentration). The mixture was extracted with ethyl acetate and the released [^3H]-acetic acid was quantified by scintillation counting. For inhibition studies, the enzyme was preincubated with compounds at 4° C. for 30 minutes prior to initiation of the enzymatic assay. IC50 values for HDAC enzyme inhibitors were determined by performing dose response curves with individual compounds and determining the concentration of inhibitor producing fifty percent of the maximal inhibition.

T1 sequence (Q13547 whole entry): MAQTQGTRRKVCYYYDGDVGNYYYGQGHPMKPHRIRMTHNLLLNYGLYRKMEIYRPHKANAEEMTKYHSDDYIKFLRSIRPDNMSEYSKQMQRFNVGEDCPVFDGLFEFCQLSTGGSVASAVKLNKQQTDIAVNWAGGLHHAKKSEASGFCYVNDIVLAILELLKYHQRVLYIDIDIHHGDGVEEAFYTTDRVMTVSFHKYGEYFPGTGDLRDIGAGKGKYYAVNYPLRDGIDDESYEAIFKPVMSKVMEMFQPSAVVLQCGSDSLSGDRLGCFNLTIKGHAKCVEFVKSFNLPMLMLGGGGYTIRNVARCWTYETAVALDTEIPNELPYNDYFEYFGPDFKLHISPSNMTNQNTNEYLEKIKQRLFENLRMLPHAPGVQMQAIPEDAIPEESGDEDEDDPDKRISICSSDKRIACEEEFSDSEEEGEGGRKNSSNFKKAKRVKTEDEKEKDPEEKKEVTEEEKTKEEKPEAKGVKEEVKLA

SMILES | IC50 [nM]
O=C(CCCCCCC(=O)c1ccc(-c2ccccc2)cc1)Nc1n[nH]c(=S)s1 [Compound 79, N-(4,5-Dihydro-5-thioxo-1,3,4-thiadiazol-2-yl)-7-[(4-biphenyl)carbonyl]-heptanamide] | 9000
COc1ccc(N)c(NC(=O)CCCCCCC(=O)c2ccc(-c3ccccc3)cc2)c1 [Compound 83, N-(3-(4-Amino)anisole)-7-[(4-biphenyl)carbonyl]heptanamide] | 25000
O=C(CCCCCCC(=O)c1ccccc1)Nc1ccccc1O [Compound 86, N-(2-Hydroxyphenyl)-7-(benzoyl)heptanamide] | 5000
O=C(CCCCCCC(=O)c1cc2ccccc2[nH]1)NO [Compound 100, N-Hydroxy-7-[2-(indolyl)carbonyl]heptanamide] | 4000
O=C(CCCCCC(=O)c1ccc(-c2ccccc2)cc1)Nc1n[nH]c(=S)s1 [Compound 128, N-(4,5-Dihydro-5-thioxo-1,3,4-thiadiazol-2-yl)-6-[(4-biphenyl)carbonyl]hexanamide] | 19000
Nc1ccccc1NC(=O)CCCCCCC(=O)c1ccc(-c2ccc(CN3CCOCC3)cc2)cc1 [Compound 157, N-(2-Aminophenyl)-7-[4-(4-(N-methylmorpholinyl)phenyl)benzoyl]heptanamide] | 4000
C/C(=C/C(=O)Nc1ccccc1N)CCCCC(=O)c1ccc2ccccc2c1 [Compound 194, (Z)-N-(2-Aminophenyl)-3-methyl-7-(2-naphthoyl)-2-heptenamide] | 24000
CC(CCCCC(=O)c1ccc2ccccc2c1)CC(=O)Nc1ccccc1N (centres unmarked) [Compound 198, (Z)-N-(2-Aminophenyl)-3-methyl-7-(2-naphthoyl)heptanamide] | 16000

These reach a lower IC50. Values come first.

IC50 [nM] | SMILES
3000 | Nc1ccccc1NC(=O)CCCCCCCC(=O)c1ccc(-c2ccccc2)cc1 [Compound 130, N-(2-Aminophenyl)-8[(4-biphenyl)carbonyl]octanamide]
2000 | CON=C(CCCCCCC(=O)Nc1ccccc1N)c1cccc(-c2ccccc2)c1 (mixture of isomers) [Compound 135, N-(2-Aminophenyl)-8-(E)-O-methyl-oximino-8-(3-biphenyl)octanamide]
1000 | Nc1ccccc1NC(=O)CCCCCC(=O)c1ccc(-c2ccccc2)cc1 [Compound 129, N-(2-Aminophenyl)-6-[(biphenyl)carbonyl]hexanamide]
1000 | Nc1ccccc1NC(=O)CCCCCCC(O)c1cccc(-c2ccccc2)c1 (centres unmarked) [Compound 133, N-(2-Aminophenyl)-8-(3-biphenyl)-8-hydroxy-octanamide]
800 | Nc1ccccc1NC(=O)CCCCCCC(=O)c1cccc(-c2ccccc2)c1 [Compound 132, N-(2-Aminophenyl)-7-[(3-biphenyl)carbonyl]heptanamide]
600 | Nc1ccccc1NC(=O)CCCCCCC(=O)c1ccccc1 [Compound 53a, N-(2-Aminophenyl)-7-benzoylheptanamide]
50 | COc1ccc(-c2ccc(C(=O)CCCCCCC(=O)NO)cn2)cc1OC [Compound 150, N-Hydroxy-7-[5-(2-(3,4-dimethoxyphenyl)pyridyl)carbonyl]heptanamide]
50 | CN(CCCCCC(=O)NO)Cc1ccc2ccccc2c1 [Compound 209, N-Hydroxy-N-(2-naphthylmethyl-methylamino)hexanamide]
30 | CC(C)(C)OC(=O)N1CCN(c2ccc(C(=O)CCCCCCC(=O)NO)cc2)CC1 [Compound 138c1, N-Hydroxy-7-[4-(1-(4-tert-butyloxycarbonylpiperazinyl))benzoyl]heptanamide]
30 | O=C(CCCCCCC(=O)c1ccc(N2CCNCC2)cc1)NO [Compound 138c2]
20 | O=C(CCCCCCC(=O)c1ccc(NCc2cccnc2)cc1)NO [Compound 138f, N-Hydroxy-7-[4(N-3-aminomethylpyridyl)benzoyl]heptanamide]
8 | O=C(CCCCCCC(=O)c1cccc(-c2ccccc2)c1)NO [Compound 131, N-Hydroxy-7-[(3-biphenyl)carbonyl]heptanamide]
